Assay results reported in BindingDB's records for doi:10.1021/jm00095a003 (C.N.R.-Centro Studio Sostanze Organiche Naturali, 1992).
pKd: −log10 of the molar value.

Key:
[1] = target: T1, Muscarinic acetylcholine receptor (Cavia porcellus, UniProt Q8VH26); test: Dissociation constant at muscarinic acetylcholine receptor M3 of guinea pig ileum.
[2] = target: T1, Muscarinic acetylcholine receptor; test: Dissociation constant at muscarinic acetylcholine receptor M3 guinea pig bladder.
[3] = target: T1, Muscarinic acetylcholine receptor; test: Dissociation constant at muscarinic M3 receptors of guinea pig ileum.
[4] = target: T1, Muscarinic acetylcholine receptor; test: Dissociation constant at muscarinic M3 receptors of guinea pig bladder.

T1 sequence (Q8VH26 whole entry): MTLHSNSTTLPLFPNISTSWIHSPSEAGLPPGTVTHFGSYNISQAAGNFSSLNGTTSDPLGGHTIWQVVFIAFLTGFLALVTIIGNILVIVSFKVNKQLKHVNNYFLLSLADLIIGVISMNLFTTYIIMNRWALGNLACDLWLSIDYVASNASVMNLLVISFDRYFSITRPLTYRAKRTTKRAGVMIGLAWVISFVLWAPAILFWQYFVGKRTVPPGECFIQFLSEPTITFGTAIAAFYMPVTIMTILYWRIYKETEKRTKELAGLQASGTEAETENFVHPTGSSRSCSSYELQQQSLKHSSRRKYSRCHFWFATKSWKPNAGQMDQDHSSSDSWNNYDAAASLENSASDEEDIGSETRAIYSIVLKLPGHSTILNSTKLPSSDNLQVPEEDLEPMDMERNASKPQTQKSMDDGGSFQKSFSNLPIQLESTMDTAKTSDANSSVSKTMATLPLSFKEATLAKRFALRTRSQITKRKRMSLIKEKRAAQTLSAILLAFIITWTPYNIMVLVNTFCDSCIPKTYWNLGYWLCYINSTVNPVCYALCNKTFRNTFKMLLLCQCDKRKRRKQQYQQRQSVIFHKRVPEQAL

SMILES | pKd [1] | pKd [2] | pKd [3] | pKd [4]
C[C@@H]1O[C@H](C[N+](C)(C)C)C[C@H]1O | 5.95 | 4.62 | – | –
C[C@@H]1O[C@H](C[N+](C)(C)C)C[C@H]1F | – | – | 5.72 | 4.39
